Experimental data as given in patent US4870175A, “6-substituted alkoxy-2-oxo-1,2-dihydroquinoxaline derivatives” (Toyo Jozo Kabushiki Kaisha, priority 1987, dated 1989).
Where two headings read alike, the source gives them in different places.

What was measured:
[1] = tested on: cyclic AMP/phosphodiesterase; assay: Inhibitory action of cyclic AMP/phosphodiesterase (crude enzyme fraction from sonicated rabbit platelets); type: biochemical; conditions: 40 min
Protocol: The pharmacological activity of the present compounds [1] is illustrated below. (1) Inhibitory action of cyclic AMP/phosphodiesterase:
A mixture of 2 mM MgCl2 /40 mM Tris-buffer (pH 7.5) 700 μl, enzyme solution (a crude enzyme fraction obtained from sonicated rabbit platelets) 100 μl, and a test sample solution (compound [1] dissolved in 50% aqueous methanol) 100 μl is incubated at 30° C. for 5 mins. 3', 5'-cyclic AMP 100 μl (50 μg) is added thereto and the mixture is further incubated for 40 mins. The reaction is stopped by heating 100° C. for 5 mins. The amount of 5'-AMP in the supernatant obtained by centrifugation at 3000 rpm for 5 mins. is measured using HPLC.
As shown in that table, the compound of the present invention has cyclic AMP/phosphodiesterase inhibitory activity at 1-10 μg/ml.

[2] = tested on: rabbit platelet-rich plasma; assay: Platelet aggregation inhibition (rabbit platelet-rich plasma, aggregometer); type: cell-based; conditions: Oryctolagus cuniculus, compound final concentration 10 μM, read-out: Inhibitory ratio
Protocol: (2) Platelet aggregation inhibition:
A rabbit platelet-rich plasma (5×10^5 /mm^3), to which was added 1/10 volume of a 3.8% sodium citrate solution, 216 μl, is incubated in an aggregometer at 37° C., 1000 rpm, for 3 mins. A test sample solution 12 μl (final concentration 10 μM) is added thereto and the mixture is further incubated for 3 mins., and collagen (aggregation agent) 2.5 μg/ml, ADP 2.5 μM, platelet activating factor (PAF) 0.05 μg/ml or 0.25 mM arachidonic acid (A.A.) 12 μl is added thereto as an aggregating agent, and the platelet aggregation activity is measured.

[3] = aggregating agent PAF 0.05 μg/ml
[4] = aggregating agent arachidonic acid (A.A.) 0.25 mM
[5] = aggregating agent collagen 2.5 μg/ml

Structure (SMILES)	Inhibitory ratio ([1]; 1 μg/ml)	Inhibitory ratio ([1]; 10 μg/ml)	Inhibitory ratio ([1]; 100 μg/ml)	inhibition at 10 µM [2, 3]	inhibition at 10 µM [2, 4]	inhibition at 10 µM [2, 5]	inhibition at 10 µM ([2]; aggregating agent ADP 2.5 μM)
O=C1CNc2cc(OCCCCc3nnnn3C3CCCCC3)ccc2N1 [Compound 931, 6-[4-(1-cyclohexyltetrazole-5-yl)-butoxy]-2-oxo-1,2,3,4-tetrahydroquinoxaline]	25.3%	74.3%	86.4%	44.3%	34%	65.2%	–
CN(C(=O)CCCOc1ccc2c(c1)NCC(=O)N2)C1CCCCC1 [Compound 929, 6-[3-(N-cyclohexyl-N-methyl-aminocarbonyl)propoxy]-2-oxo-1,2,3,4-tetrahydroquinoxaline]	11.2%	53.9%	88.5%	30.4%	41.8%	50.8%	49.4%
CN(C(=O)CCCCOc1ccc2[nH]c(=O)cnc2c1)C1CCCCC1 [Compound 920]	42.9%	81.7%	75.1%	26.9%	30.2%	52.5%	49.3%
CCc1nc2cc(OCCCC(=O)N(CCO)C3CCCCC3)ccc2[nH]c1=O [Compound 972]	84.4%	93.4%	–	56.3%	48.7%	70.5%	63.6%
CCCc1nc2cc(OCCCC(=O)OCC)ccc2[nH]c1=O [Compound 947]	66.9%	90.1%	–	27.5%	19.6%	39.5%	59.5%
Cc1nc2cc(OCCCC(=O)N(CCO)C3CCCCC3)ccc2[nH]c1=O [Compound 966]	54.5%	86.6%	93.7%	–	–	83.5%	–
